In patent publication US8455251B2, “Method for isolating and culturing adult stem cells derived from human amniotic epithelium” (RNL Bio Co., Ltd., priority 2007, dated 2013):

How the values were obtained:
Assay type in all cases: cell-based, human
[1] = test system: amniotic epithelial cell-derived adult stem cells; assay: Proliferation of stem cells at various concentrations of ROCK inhibitor; design: proliferation of the cells: dose or concentration left out as unconfirmed
Experimental: In order to examine the proliferation potential of amniotic epithelial cell-derived adult stem cells at various concentrations of ROCK inhibitor, the amniotic epithelial cells obtained in Example 1 were subcultured in DMEM/F-12 media containing FBS, ascorbic acid, epidermal growth factor, insulin and an antibiotic, to which ROCK inhibitor Y-27632 has been added at various concentrations of 100 μM, 1 μM, 100 nM and 10 nM. After 1 day and 4 days of the subculture, the optimum ROCK inhibitor Y-27632 concentration for the culture of the adult stem cells was examined.

[2] = test system: amniotic epithelial cell-derived adult stem cells; assay: Culture and subculture of amniotic epithelial cells in the presence of ROCK inhibitor; details: 10 μM ROCK inhibitor added 4 days after isolation of the amniotic epithelial cells, FIG. 2
Experimental: The obtained amniotic epithelial cells were cultured in a medium (Gibco) consisting of a 1:1 mixture of DMEM (Dulbecco modified Eagle medium) and F-12 (nutrient mixture) to which FBS, ascorbic acid, epidermal growth factor, insulin, an antibiotic and 10 μM of ROCK inhibitor Y-27632 have been added at the concentrations shown in Table 2 below. After 3 days of culture, the adult stem cells derived from the cultured amniotic epithelial cells were washed with HBSS buffer, and then incubated with Tryple-express (Gibco) or 0.25% trypsin-EDTA at 37° C. for 10 minutes. An FBS-containing medium was added thereto to inactivate trypsin, and then 5×10^6 stem cells derived from the amniotic epithelial cells were obtained and seeded into a fresh medium and subcultured. For each reseeding for subcultures, 10 μM of ROCK inhibitor was added to each fresh medium.

[3] = test system: amniotic epithelial cell-derived adult stem cells; assay: Effect of the addition of ROCK inhibitor on proliferation of stem cells (Comparative Example 1); details: 10 μM; observed 1, 2 and 3 days after seeding
Experimental: In order to examine the effect of ROCK inhibitor, 4×10^6 amniotic epithelial cells obtained in Example 1 were subcultured in a DMEM/F-12 medium containing FBS, ascorbic acid, epidermal growth factor, insulin and an antibiotic for 4 days. Then, the cells were seeded into each of a medium containing 10 μM of the ROCK inhibitor Y-27632 and a medium containing no ROCK inhibitor and were observed 1 day, 2 days and 3 days after seeding.

[4] = test system: amniotic epithelial cell-derived adult stem cells; assay: Proliferation of stem cells according to ROCK inhibitor treatment period
Experimental: In order to further improve the proliferation ability of the amniotic epithelial cells obtained in Example 1, the method used in the embryonic stem cell study (Watanabe et al., Nature Biotechnology, 25:681, 2007) and the method of adding ROCK inhibitor during the culture were compared. In other words, the culture in which 10 μM of ROCK inhibitor was added only before reseeding was compared with the culture in which the ROCK inhibitor was added even after reseeding.

[5] = test system: amniotic epithelial cells; assay: Isolation of amniotic epithelial cells from amniotic tissue, living cells counted by trypan blue
Experimental: 5 g of amniotic tissue was weighed and washed with HBSS. For stable isolation of amniotic epithelial cells, the washing process was carried out using HBSS buffer more similar to the constituents of the human body rather than using general PBS. The washed amniotic tissue was transferred into a 50-ml tube, and 10 mM DTT was added thereto. After treatment with DTT for 30 minutes, the supernatant was discarded, the amniotic tissue was finely cut, and the finely cut amniotic tissue was treated with fresh 0.05% trypsin-EDTA at 37° C. for 42 minutes under stirring, thus chemically degrading the tissue. The chemically degraded tissue was vortexed for 1 minute, and then it was primarily filtered through a 1-mm mesh and secondarily filtered through a 100-μm mesh, thus removing non-degraded tissue. The filtered tissue was centrifuged at 1800 rpm for 10 minutes. The single cell pellets at the bottom were well suspended, thus obtaining amniotic epithelial cells. Living cells were visually counted under a microscope using a hemocytometer according to trypan blue dye method and, as a result, the number of cells counted immediately after isolation was 3.72×10^7 cells (FIG. 1 (A)). On the other hand, in the case in which amniotic epithelial cells were isolated from amniotic tissue by treatment with trypsin alone without the addition of DTT, the number of cells counted immediately after isolation was 9.25×10^5 cells (FIG. 1 (B)).

Molecule: CC(N)C1CCC(C(=O)Nc2ccncc2)CC1 (stereo not drawn) [ROCK inhibitor, Y-27632]
- degree of proliferation ([1]; 10 nM, after 1 day and 4 days of subculture, versus untreated control): did not greatly differ from that in the control
- cell morphology / differentiation ([1]; 100 μM, after 1 day and 4 days of subculture): a cell morphology change or cell differentiation appeared
- proliferation of the cells ([1]; after 1 day and 4 days of subculture): significantly increased
- most preferred concentration for the culture of the adult stem cells ([1]; tested at 100 μM, 1 μM, 100 nM and 10 nM): about 10 μM
- number of the adult stem cells [2]: rapidly increased
- apoptosis of the amniotic epithelial cells [3]: inhibited
- proliferation of adult stem cells [3]: significantly increased
- proliferation ability of the adult stem cells ([4]; case (A): 10 μM ROCK inhibitor only before reseeding, cultured 1 day): clearly increased compared to the control
- proliferation ability of adult stem cells ([4]; case (B): ROCK inhibitor continuously added during reseeding and culture, 1 day): superior compared to the case (A)

Molecule: O[C@H](CS)[C@H](O)CS (racemic) [DTT, dithiothreitol]
- number of cells counted immediately after isolation ([5]; 5 g amniotic tissue, 10 mM DTT 30 minutes, then 0.05% trypsin-EDTA 37° C. 42 minutes): 3.72×10^7 cells
- number of isolated amniotic epithelial cells and number of cells after culture, versus trypsin alone ([5]; DTT and trypsin (FIG. 1 A, C) versus trypsin alone (B, D)): significantly larger

B1: trypsin: 0.05% trypsin-EDTA (Gibco) used to isolate single cells from amniotic tissue (protein, UniProt P00761 9-231, looked up)
Trypsin: IVGGYTCAANSIPYQVSLNSGSHFCGGSLINSQWVVSAAHCYKSRIQVRLGEHNIDVLEGNEQFINAAKIITHPNFNGNTLDNDIMLIKLSSPATLNSRVATVSLPRSCAAAGTECLISGWGNTKSSGSSYPSLLQCLKAPVLSDSSCKSSYPGQITGNMICVGFLEGGKDSCQGDSGGPVVCNGQLQGIVSWGYGCAQKNKPGVYTKVCNYVNWIQQTIAAN
modifications: with EDTA
notes: 0.05% trypsin-EDTA (Gibco) used to isolate single cells from amniotic tissue
- number of cells counted immediately after isolation ([5]; treatment with trypsin alone without the addition of DTT): 9.25×10^5 cells
